Source: ChEMBL document CHEMBL1201862, “PubChem BioAssay data set” (2004)
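Values below derive from 48-hour exposures of cells grown in 96-well plates, with endpoints linearly interpolated between the two concentrations bracketing the appropriate inhibition level. Abbreviation: GI50, concentration required for 50% inhibition of growth.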 The source made the active and inactive calls. No stated cut-off is given here; in the data, active = GI50 up to about 1.1 µM and inactive = higher.

Legend:
Assay in all cases: DTP human tumour cell line panel, 48 h
Hs-578T = tested on: Hs-578T
T47D = tested on: T47D
SN12C = tested on: SN12C
SW-620 = tested on: SW-620
OVCAR-4 = tested on: OVCAR-4
M14 = tested on: M14
ACHN = tested on: ACHN
CCRF-CEM = tested on: CCRF-CEM
MDA-MB-435 = tested on: MDA-MB-435
DU-145 = tested on: DU-145
IGROV-1 = tested on: IGROV-1
SF-539 = tested on: SF-539
UACC-257 = tested on: UACC-257
786-0 = tested on: 786-0
NCI-H226 = tested on: NCI-H226
PC-3 = tested on: PC-3
TK-10 = tested on: TK-10
SK-OV-3 = tested on: SK-OV-3
UO-31 = tested on: UO-31
MOLT-4 = tested on: MOLT-4
MCF7 = tested on: MCF7
SF-268 = tested on: SF-268
HOP-92 = tested on: HOP-92
A498 = tested on: A498
A549 = tested on: A549
SK-MEL-28 = tested on: SK-MEL-28
U-251 = tested on: U-251
OVCAR-5 = tested on: OVCAR-5
NCI-H460 = tested on: NCI-H460
MDA-MB-231 = tested on: MDA-MB-231
LOX IMVI = tested on: LOX IMVI
HL-60 = tested on: HL-60
SK-MEL-5 = tested on: SK-MEL-5
EKVX = tested on: EKVX
RPMI-8226 = tested on: RPMI-8226
SK-MEL-2 = tested on: SK-MEL-2
BT-549 = tested on: BT-549
COLO 205 = tested on: COLO 205
NCI-H23 = tested on: NCI-H23
Malme-3M = tested on: Malme-3M
SR = tested on: SR
MDA-N = tested on: MDA-N
NCI/ADR-RES = tested on: NCI/ADR-RES
RXF 393 = tested on: RXF 393
HOP-62 = tested on: HOP-62
K562 = tested on: K562
HCT-116 = tested on: HCT-116
SNB-19 = tested on: SNB-19
KM12 = tested on: KM12
OVCAR-3 = tested on: OVCAR-3
HT-29 = tested on: HT-29
HCT-15 = tested on: HCT-15
UACC-62 = tested on: UACC-62
OVCAR-8 = tested on: OVCAR-8
NCI-H522 = tested on: NCI-H522
CAKI-1 = tested on: CAKI-1
SNB-75 = tested on: SNB-75
SF-295 = tested on: SF-295

SMILES: Nc1nc(Nc2ccccc2)sc1C(=O)c1c[nH]c2ccccc12
- GI50 (Hs-578T): 16.3 µM (inactive)
- GI50 (T47D): 6.49 µM (inactive)
- GI50 (SN12C): 15.7 µM (inactive)
- GI50 (SW-620): 11.1 µM (inactive)
- GI50 (OVCAR-4): 10.3 µM (inactive)
- GI50 (M14): 8 µM (inactive)
- GI50 (ACHN): 15.6 µM (inactive)
- GI50 (CCRF-CEM): 3.2 µM (inactive)
- GI50 (MDA-MB-435): 11.2 µM (inactive)
- GI50 (DU-145): 9.89 µM (inactive)
- GI50 (IGROV-1): 12.9 µM (inactive)
- GI50 (SF-539): 12.4 µM (inactive)
- GI50 (UACC-257): 10.8 µM (inactive)
- GI50 (786-0): 5.52 µM (inactive)
- GI50 (NCI-H226): 10.6 µM (inactive)
- GI50 (PC-3): 11.6 µM (inactive)
- GI50 (TK-10): 3.09 µM (inactive)
- GI50 (SK-OV-3): 16.6 µM (inactive)
- GI50 (UO-31): 2.56 µM (inactive)
- GI50 (MOLT-4): 2.08 µM (inactive)
- GI50 (MCF7): 11.8 µM (inactive)
- GI50 (SF-268): 15.1 µM (inactive)
- GI50 (HOP-92): 16.4 µM (inactive)
- GI50 (A498): 11.4 µM (inactive)
- GI50 (A549): 7.52 µM (inactive)
- GI50 (SK-MEL-28): 11.7 µM (inactive)
- GI50 (U-251): 10.7 µM (inactive)
- GI50 (OVCAR-5): 11.9 µM (inactive)
- GI50 (NCI-H460): 4.23 µM (inactive)
- GI50 (MDA-MB-231): 17.2 µM (inactive)
- GI50 (LOX IMVI): 13.5 µM (inactive)
- GI50 (HL-60): 19.1 µM (inactive)
- GI50 (SK-MEL-5): 11.8 µM (inactive)
- GI50 (EKVX): 5.94 µM (inactive)
- GI50 (RPMI-8226): 10.7 µM (inactive)
- GI50 (SK-MEL-2): 15.1 µM (inactive)
- GI50 (BT-549): 14.8 µM (inactive)
- GI50 (COLO 205): 4.2 µM (inactive)
- GI50 (NCI-H23): 17.5 µM (inactive)
- GI50 (Malme-3M): 19.4 µM (inactive)
- GI50 (SR): 1.45 µM (inactive)
- GI50 (MDA-N): 12.4 µM (inactive)
- GI50 (NCI/ADR-RES): 12.6 µM (inactive)
- GI50 (RXF 393): 8.49 µM (inactive)
- GI50 (HOP-62): 16.7 µM (inactive)
- GI50 (K562): 4.06 µM (inactive)
- GI50 (HCT-116): 6.97 µM (inactive)
- GI50 (SNB-19): 3.28 µM (inactive)
- GI50 (KM12): 10.2 µM (inactive)
- GI50 (OVCAR-3): 13.4 µM (inactive)
- GI50 (HT-29): 3.73 µM (inactive)
- GI50 (HCT-15): 3.95 µM
- GI50 (UACC-62): 14.8 µM (inactive)

SMILES: Cc1cc2c(cc1-c1cc3c(cc1C)C(C(C)C)=C(O)C(=O)/C3=C\Nc1c3ccccc3nc3ccccc13)/C(=C/Nc1c3ccccc3nc3ccccc13)C(=O)C(O)=C2C(C)C
- GI50 (Hs-578T): 3.77 µM (inactive)
- GI50 (T47D): 6.17 µM (inactive)
- GI50 (SN12C): 4.47 µM (inactive)
- GI50 (SW-620): 2.9 µM (inactive)
- GI50 (OVCAR-4): 3.15 µM (inactive)
- GI50 (M14): 2.67 µM (inactive)
- GI50 (ACHN): 1.49 µM (inactive)
- GI50 (CCRF-CEM): 3.51 µM (inactive)
- GI50 (MDA-MB-435): 4.6 µM (inactive)
- GI50 (DU-145): 6.3 µM (inactive)
- GI50 (IGROV-1): 2.64 µM (inactive)
- GI50 (SF-539): 3.86 µM (inactive)
- GI50 (UACC-257): 4.34 µM (inactive)
- GI50 (786-0): 2.72 µM (inactive)
- GI50 (NCI-H226): 1.26 µM (inactive)
- GI50 (PC-3): 3.25 µM (inactive)
- GI50 (SK-OV-3): 3.34 µM (inactive)
- GI50 (UO-31): 3.03 µM (inactive)
- GI50 (MOLT-4): 3.27 µM (inactive)
- GI50 (MCF7): 3.17 µM (inactive)
- GI50 (SF-268): 3.36 µM (inactive)
- GI50 (HOP-92): 5.73 µM (inactive)
- GI50 (A498): 7.03 µM (inactive)
- GI50 (A549): 2.97 µM (inactive)
- GI50 (SK-MEL-28): 7.03 µM (inactive)
- GI50 (U-251): 4.02 µM (inactive)
- GI50 (OVCAR-8): 2.3 µM (inactive)
- GI50 (OVCAR-5): 4.4 µM (inactive)
- GI50 (NCI-H460): 2.09 µM (inactive)
- GI50 (MDA-MB-231): 4.55 µM (inactive)
- GI50 (HL-60): 2.78 µM (inactive)
- GI50 (SK-MEL-5): 3.99 µM (inactive)
- GI50 (EKVX): 1.75 µM (inactive)
- GI50 (NCI-H522): 1.13 µM (inactive)
- GI50 (CAKI-1): 3.03 µM (inactive)
- GI50 (RPMI-8226): 4.52 µM (inactive)
- GI50 (SK-MEL-2): 5.58 µM (inactive)
- GI50 (BT-549): 5.85 µM (inactive)
- GI50 (COLO 205): 1.99 µM (inactive)
- GI50 (NCI-H23): 3.66 µM (inactive)
- GI50 (Malme-3M): 2.2 µM (inactive)
- GI50 (SR): 3.91 µM (inactive)
- GI50 (MDA-N): 4.06 µM (inactive)
- GI50 (NCI/ADR-RES): 2.59 µM (inactive)
- GI50 (RXF 393): 5.24 µM (inactive)
- GI50 (HOP-62): 4.26 µM (inactive)
- GI50 (HCT-116): 6.25 µM (inactive)
- GI50 (SNB-75): 2.32 µM (inactive)
- GI50 (SNB-19): 3.82 µM (inactive)
- GI50 (KM12): 3.09 µM (inactive)
- GI50 (OVCAR-3): 3.47 µM (inactive)
- GI50 (HT-29): 1.54 µM (inactive)
- GI50 (HCT-15): 3.85 µM
- GI50 (UACC-62): 3.66 µM (inactive)
- GI50 (SF-295): 2.31 µM (inactive)
